# From patent publication US10941187B2 (The United States of America, as represented by the …, priority 2001, dated 2021)
# Columns and labels:
# [1] = test system: cultured hippocampal neurons; assay: Glutamate-induced apoptotic cell death in hippocampal neurons (Hoechst 33342); type: cell-based, rat; conditions: GLP-1 10 nM
# Procedure: The fluorescent DNA binding dye Hoescht 33342 was used to measure apoptotic cell death. […] Cells were fixed in a solution of 4% paraformaldehyde in PBS and membranes were permeabilized with 0.2% Trition X-100. Following incubation with Hoechst 33342 (1 μM) for 30 min, nuclei were visualized under epifluorescence illumination (340 nm excitation, 510 nm barrier filter) using a 40× oil-immersion objective. Approximately 200 cells were counted in at least three separate dishes for each treatment condition, and experiments were repeated at least twice. Cells were considered apoptotic if nuclear DNA was fragmented or condensed, whereas cells with nuclear DNA of a more diffuse and uniform distribution, were considered viable. At the time of counting, the investigator was unaware of the identity of the treatment groups. The percentage of cells with condensed or fragmented nuclei was determined in each culture.
# Aβ1-40 [2] = assay: Aβ1-40 in whole brain homogenates after i.c.v. infusion in control mice; type: in vivo, mouse; conditions: 48 h
# Procedure: Lean db+/db+ control male mice (n=24) were anaesthetized with 50 mg/kg pentobarbitone and placed in a stereotaxic surgical frame with mouse adaptor (David Kopf Instruments, Tujunga, Calif.) using temporal bone cup holders. […] After 48 h all animals were sacrificed by cervical dislocation, the brains removed and rapidly frozen in liquid nitrogen. Brains were pulverized and stored at −80° C. prior to assaying for Aβ levels.
# Equivalent volumes of conditioned media and whole brain homogenate were assayed for Aβ1-40 using a sandwich ELISA (Suzuki et. al., 1994). The monoclonal antibody BAN50 (raised against Aβ1-16) was used as the capture antibody for all species of Aβ (Aβ1-40 and Aβ1-42), and the monoclonal antibody BA27 was used to specifically detect Aβ1-40 levels. Levels of Aβ1-40 were expressed in pM concentrations for conditioned media samples and finol/g for the mouse brain homogenates, as deduced from the appropriate standard curve run in parallel with the assay.
# Fischer-344 rats = assay: Ibotenic acid induced cholinergic marker deficit, i.c.v. infusion
# Aβ1-40 [3] = assay: Aβ1-40 sandwich ELISA of PC12 conditioned media; type: cell-based, rat; conditions: PC12 cells, relative to control cells
# [4] = test system: β-amyloid precursor protein (βAPP); assay: Western immunoblot of βAPP (cell lysates) and sAPP (conditioned media) in PC12 cells; conditions: day 3, relative to untreated
# PC12 cells = assay: Neurite outgrowth in PC12 cells; type: cell-based, rat; conditions: low serum medium
# Procedure: Three dishes for each treatment condition were prepared. Treatments began 24 hours after seeding, once cells were well attached.
# PC12 cells were grown on 60 mm dishes as above and cultured for four days. During this time neurite outgrowth was quantified daily. Five random fields of cells were evaluated per dish and the proportion of neurite-bearing cells was determined. Approximately 100 cells per field were scored for neurites equal to or greater in length than that of the cell body. A cell was only scored once, although it may have had more than one process per cell.
# [5] = test system: cultured hippocampal cells; assay: Survival of hippocampal neurons exposed to Aβ1-42 or Fe2+; type: cell-based, rat; conditions: 2 h pretreatment, then 2 μM Aβ (1-42) or 1 μM Fe2+ for 24 hours
# Procedure: Hippocampi were removed from embryonic day 18 Sprague-Dawley rats, and cells were dissociated by mild trypsination and trituration and seeded onto polyethyleneimine-coated plastic 35 mm diameter dishes at a density of approximately 150 cells/mm^2 of culture surface. Cultures-were maintained in Neurobasal medium containing B-27 supplements (Gibco BRL, Carlsbad, Calif.), 2 mM L-glutamine, 1 mM Hepes and 0.001% gentamicin sulfate (Sigma, St. Louis, Mo.) in a 6% CO2/94% room air atmosphere at 37° C. When maintained under these conditions, the hippocampal cultures consisted of approximately 95% neurons and 5% astrocytes as determined by immunostaining with antibodies against the neuronal antigen NeuN and the astrocyte protein glial fibrillary acidic protein. Aβ1-42 was purchased from Bachem (Torrance, Calif.) and was prepared as a 1 mM stock solution in sterile water. FeSO4 was prepared as a 200 μM stock in sterile water.
# Neuronal survival was quantified as described previously (Mark et. al., 1997). Briefly, viable neurons in premarked fields (10× objective) were counted before experimental treatment and at specified time points thereafter. […] Cultures were then exposed to 2 μM Aβ (1-42) or 1 μM Fe^2+ for 24 hours. […]
# synaptophysin = assay: Synaptophysin expression in PC12 cells (Western blot); type: cell-based, rat; conditions: PC12 cell lysates, relative to untreated
# Procedure: The synaptophysin monoclonal antibody (Oncogene Research Products, San Diego Calif.), which stains neurosecretory vesicles of PC12 cells, was used. The membranes were blocked with 20 mM Tris, 500 mM NaCl pH 7.4, 1% (w/v) casein (BioRad, San Diego Calif.) at 37° C. for 1 hour. Primary antibody was diluted in block and incubated with the proteins overnight at 4° C. The membrane was vigorously washed with 20 mM Tris pH 7.4, 150 mM NaCl and 0.05% Tween-20 (TBST), three times for 15 minutes at room temperature. The peroxidase-linked secondary antibody in block was incubated with the membrane for 2 hours at room temperature. Peroxidase-linked anti-mouse IgM (Chemicon, Tenecula, Calif.) was used as the secondary antibody against synaptophysin. Excess antibody was washed off with three vigorous washes in TBST prior to incubation in ECL Plus (Amersham, Philadelphia, Pa.) for 5 minutes. The membrane was subsequently exposed to photographic film.
# [6] = Stability in human serum by MALDI mass spectrometry; type: in vitro ADME; conditions: 100% serum, 2 h at 37° C.
# Procedure: Both compounds (100 μM, 100 μl ) were incubated in an equivalent volume of human serum at 37° C. for 2 h. In all cases, enzymatic reactions were quenched by the addition of trifluoroacetic acid (0.1% v/v final concentration). Samples were immediately analyzed using Matrix Assisted […] Desorption Ionisation-Time Of Flight (MALDI-TOF) mass spectrometry. A Micromass MALDI-TOF (Micromass, Beverly, Mass.) reflectron instrument was used at a laser energy of 15-25% over a mass range of 1000-6000 Da, with 5 laser shots summed per spectrum. Alpha-cyano-4-hydroxycinnamicacid (Sigma, St. Louis, Mo.) was used as a matrix and was prepared to a concentration of 10 mg/ml in a 8 mg/ml ammonium carbonate (Sigma, St. Louis, Mo.) buffer. One microlitre samples were diluted 50/50 v/v with matrix before being transferred to the MALDI plate.
# Beta-2/NeuroD = Beta-2/NeuroD expression in PC12 cells (Western blot); type: cell-based, rat; conditions: PC12 cell lysates
# Description: Beta-2/NeuroD plays a major role in both neuronal and pancreatic endocrine development. […] Beta-2 expression in pancreatic endocrine cells, the intestine and the brain, activates insulin gene transcription and can induce neurons to differentiate. Mutant mice lacking the functional Beta-2 gene have a striking reduction in the number of insulin-producing beta cells, fail to develop mature islets and as a consequence develop severe diabetes often resulting in perinatal death (Naya et al 1997). Thus, Beta-2/NeuroD is essential for in vivo pancreatic development and neuronal differentiation.
# NeuroD production was determined by Western blot analysis using anti-NeuroD antibody as described above for synaptophysin antibody, except peroxidase-linked anti-goat IgG (Santa Cruz Biotechnology Inc.) was used as the secondary antibody. […] Indeed, Noma et al (1999) have shown that overexpression of NeuroD in transfected PC12 cells induced morphological changes such as neurite-like processes and synapse-like structures, without a differentiating-inducing agent such as NGF.
smiles,measurement,setting,value
"CC[C@H](C)[C@H](NC(=O)[C@H](Cc1ccccc1)NC(=O)[C@H](CCC(=O)O)NC(=O)[C@H](CCCCN)NC(=O)[C@H](C)NC(=O)[C@H](C)NC(=O)[C@H](CCC(N)=O)NC(=O)CNC(=O)[C@H](CCC(=O)O)NC(=O)[C@H](CC(C)C)NC(=O)[C@H](Cc1ccc(O)cc1)NC(=O)[C@H](CO)NC(=O)[C@H](CO)NC(=O)[C@@H](NC(=O)[C@H](CC(=O)O)NC(=O)[C@H](CO)NC(=O)[C@@H](NC(=O)[C@H](Cc1ccccc1)NC(=O)[C@@H](NC(=O)CNC(=O)[C@H](CCC(=O)O)NC(=O)[C@H](C)NC(=O)[C@@H](N)Cc1c[nH]cn1)[C@@H](C)O)[C@@H](C)O)C(C)C)C(=O)N[C@@H](C)C(=O)N[C@@H](Cc1c[nH]c2ccccc12)C(=O)N[C@@H](CC(C)C)C(=O)N[C@H](C(=O)N[C@@H](CCCCN)C(=O)NCC(=O)N[C@@H](CCCNC(=N)N)C(N)=O)C(C)C [GLP-1, glucagon-like peptide-1]","apoptotic cells, concurrent treatment with glutamate","[1]; 10 μM glutamate overnight, exendin-4 0.3 μM (medium alone 23%, glutamate 73%)",24%
same,protection against apoptotic effects of glutamate,"[1]; 10 μM glutamate, exendin-4 0.3 μM",completely protected
same,"apoptotic cells, peptide alone","[1]; exendin-4 0.3 μM, no glutamate",20%
same,reduction of Aβ1-40 levels compared to vehicle,"Aβ1-40 [2]; 3.3 μg GLP-1 i.c.v., not significant",16%
same,reduction of Aβ1-40 levels compared to vehicle,"Aβ1-40 [2]; 6.6 μg GLP-1 i.c.v., p<0.01",36%
same,"Abercrombie corrected ChAT-positive cell counts, Left basal nucleus (lesion side)",Fischer-344 rats; Lesion (ibotenic acid),404 ± 59
same,"Abercrombie corrected ChAT-positive cell counts, Right basal nucleus (infusion side)",Fischer-344 rats; Lesion (ibotenic acid),423 ± 45
same,"Abercrombie corrected ChAT-positive cell counts, Left basal nucleus (lesion side)",Fischer-344 rats; Sham,517 ± 50
same,"Abercrombie corrected ChAT-positive cell counts, Right basal nucleus (infusion side)",Fischer-344 rats; Sham,499 ± 41
same,"food and water intake, body weight during infusion",Fischer-344 rats; i.c.v. minipump infusion,modestly aphagic and adipsic
same,loss of ChAT-immunoreactive cell bodies in left basal nucleus below that of the right basal nucleus,"Fischer-344 rats; ibotenic acid lesion, 14 days i.c.v. infusion (vehicle 43%)",6%
same,Aβ1-40 levels in conditioned media,Aβ1-40 [3],did not significantly alter levels of Aβ1-40 production
same,intracellular levels of βAPP (cell lysates),[4],significantly decreased intracellular levels of βAPP
same,differentiation / neurite outgrowth,PC12 cells,produced similar effects on differentiation to those induced by NGF
same,concentration of maximum protective effect against death induced by Aβ1-42 and Fe2+,[5],10 nM
same,synaptophysin expression,synaptophysin,dramatically reduced the expression of the synaptophysin protein
same,stability in human serum (N-terminal truncated product by MALDI),[6],considerable increase in the amount of N-terminal truncated product
same,Beta-2/NeuroD expression (43 kDa band),Beta-2/NeuroD,increased following GLP-1 treatment
